According to patent publication US6517812B1, “Inhibition of psychostimulant-induced and nicotine-induced craving” (The General Hospital Corporation, priority 1997, dated 2003):
Several values for one entry are separate records, joined by “and”; a condition that tells them apart may be missing. Equal values may be shown once. Read-outs that look alike come from different tables or passages of the source.

Columns and labels:
Type in all cases: in vivo
[1] = test system: human brain, limbic and paralimbic regions; experiment: BOLD fMRI of brain activation after cocaine infusion (KS maps, pre vs post infusion); conditions: voxels p<10^−5, four subjects
Procedure: Scanning was performed with a quadrature head-coil and a 1.5 T MR scanner (General Electric) modified for echo-planar imaging (Advanced NMR). Imaging involved the following protocol. First, a sagittal localizer scan [conventional T1-weighted spoiled gradient refocused gradient echo (SPGR) sequence; through-plane resolution=2.8 mm; 60 slices] was performed to orient, for subsequent scans, 15 contiguous axial slices covering the whole brain. This scan was also used as the structural scan for Talairach transformation. Next, an automated shimming technique was used to optimize B0 homogeneity (Reese et al., 1995, J. Magn. Reson. Imaging 5:739-745). This was followed by a SPGR T1-weighted flow-compensated scan (resolution=1.6 mm×1.6 mm×8 mm) scan, which was primarily obtained to aid Talairach transformation during data analysis (see Breiter et al., 1996, Arch. Gen. Psychiatry 53:595-606). The fourth scan was a T1-weighted echo planar inversion recovery sequence (TI=1200 msec, in-plane resolution=1.57 mm) for high-resolution structural images to be used in preliminary statistical maps, but not with Talairach transformed or averaged maps. Finally, BOLD imaging was performed using an asymmetric spin echo T2*-weighted sequence (TR=8000, TE=50, 180 refocusing pulse offset by −25 ms; FOV=40×20 cm; in-plane resolution=3.125 mm; through-plane resolution=8 mm; 15 contiguous axial slices covering the whole brain) to measure ‘activation’ (local changes in blood flow and oxygenation) (Kwong et al., 1992, Proc. Natl. Acad. Sci. 89:5675-5679; Ogawa et al., 1992, Proc. Natl. Acad. Sci. 89:5957-5955; Bandettini et al., 1992, Magn. Reson. Med. 25:390-397). Images were acquired interleaved for 136 time points for each infusion.
Motion correction: To reduce head motion, each subject was positioned using a bitebar, and echo-planar data was motion corrected using an algorithm (Jiang et al., 1995, Hun. Brain Mapp. 3:1-12) adapted from Woods et al (1992), and described elsewhere (Breiter et al., 1996, Arch. Gen. Psychiatry 53:595-606). […] After motion correction, time-series data were inspected to assure that no data set evidenced residual motion in the form of cortical rim or ventricular artifacts >1 voxel.
Talairach transformation: Each individual's set of infusion related functional images, along with the associated conventional structural scans, were transformed into Talairach space (Talairach et al., 1988, New York: Thieme Medical Publishers; Breiter et al., 1996, Arch. Gen. Psychiatry 53:595-606; Breiter et al., 1996, Neuron 17:875-887) and resliced in the coronal orientation over 57 slices with isotropic voxel dimensions (x,y,z=3.125 mm). […]

[2] = Plasma cocaine levels after IV infusion (liquid chromatography with photodiode array detection); conditions: human, 0.6 mg/kg IV; for Cmax: plasma, iv
Procedure: Sequential 4 ml venous blood samples were collected immediately before and at 1, 3, 5, 10, 15, 30, 60, 90 and 120 minutes following each infusion. The 120 minute sample for the first infusion was also the pre-infusion sample for the second infusion.
Plasma/Urine Levels: Cocaine quantitative assays were performed by the MGH Clinical Chemistry Laboratory using a liquid chromatography with photodiode array detection method they developed (Puopolo et al., 1992, Clin. Chem. 38:1838-1842), with minor modifications (flow rate increased from 2.0 to 2.6 ml/minute and LCPCN column length increased from 150 to 250 mm). Intra-assay imprecision at […] for cocaine is 5.1%, 5.7% and 6.6% respectively.

[3] = test system: cocaine-dependent volunteers; experiment: Behavioral ratings of rush, high, low and craving (integer scale 0 to 3) after cocaine infusion; conditions: human
Text: During FAIR and BOLD infusion scans, behavioral measures of rush, high, low, and craving were obtained in a continuous sequence each minute. Thus, over each 15 second epoch, one rating scale would be projected for the subject's response. Given four scales, it took one minute to cycle through the complete set of scales. Timing of scan initiation, infusion onset and offset, and scan completion were linked with ongoing behavioral reports to allow subsequent correlational analysis between behavioral ratings and fMRI acquisitions. Behavioral responses were acquired with a four-button button-press which had been adapted to the magnet environment by construction with non-magnetic components and filtering of its output at the Faraday shield.
To obtain meaningful behavioral ratings during scanning, subjects were trained beforehand. The day before scanning, subjects were interviewed in depth by one of two board-certified psychiatrists to fully describe their experience of cocaine intake. These descriptions were then categorized by the psychiatrist and subject into four components: the rush, high, low, and craving which were to be rated on an integer scale of 0 (none) to 3 (maximum). The individualized conventions for description of subjective responses were then tested, during the unblinded pre-infusion with 0.2 mg/kg cocaine, on a portable computer with a program simulating that used in the MRI.
Of the four behavioral measures, only craving was defined operationally in terms of the action the individual wanted to engage in (to get more cocaine). The other three behavioral measures, rush, high, and low, were defined in terms of subjective feelings which were not necessarily associated with a behavioral output, or associated with the planning and implementation of physical activity. Thus, by definition, only craving was defined as a motivational state. In general, rush experiences involved physical sensations of elevated heart rate and sweating, along with internal feelings variously characterized as ‘speeding’ sensations and sensations of ‘being out-of-control’. In contrast, the high experience was generally associated with feelings of self-confidence, well-being, and sociability. The low experience encompassed all negative subjective feelings potentially associated with cocaine use such as anxiety, paranoia, dysphoria, or anhedonia; the majority of subjects in this study discussed the low in terms of dysphoric affect distinct from a diminishment in the high experience.
Behavioral Data: The integer output for each behavioral rating was segregated by category of rush, high, low, and craving. For the group data in FIG. 2, the 18 measures for each behavioral category obtained during the 18 minute BOLD infusion scan were averaged for the 9 subjects with both interpretable behavioral data and fMRI data. This averaged data was then utilized in the correlational analysis of the cocaine fMRI data.

[4] = 0.6 mg/kg IV blinded, scale 0-3
[5] = 0.6 mg/kg IV, post-infusion, 0.6 mg/kg

COC(=O)[C@H]1[C@@H](OC(=O)c2ccccc2)C[C@@H]2CC[C@H]1N2C [cocaine]
percent signal change, NAc/SCC Left ([1]; retest condition): 2.3%
percent signal change, NAc/SCC Right ([1]; retest condition): 2.1%
percent signal change, NAc/SCC Left ([1]; test condition): 3.8%
percent signal change, NAc/SCC Right ([1]; test condition): 2.4%
time to peak cocaine plasma concentration, mean±SD ([2]; 4 subjects with re-test experiments): 6.0 ± 2.9 min
time to peak cocaine plasma concentration, mean±SD ([2]; initial series of experiments, 0.6 mg/kg): 7.6 ± 4.2 min and ~7 min
Cmax ([2]; 0.6 mg/kg, n=7, range over subjects, read-out: Peak plasma cocaine levels (Cmax), range): 197 to 893 ng/mL
Cmax ([2]; 0.6 mg/kg, n=7 subjects with complete data, read-out: Peak plasma cocaine levels (Cmax), mean): 389 ± 233 ng/mL
craving rating ([3]; 0.2 mg/kg IV, unblinded): 1.0±1.3
high rating ([3]; 0.2 mg/kg IV, unblinded): 1.7±1.2
low rating ([3]; 0.2 mg/kg IV, unblinded): 0.8±0.8
rush rating ([3]; 0.2 mg/kg IV, unblinded): 1.2±1.1
peak craving rating [3, 4]: 1.3±0.9
peak high rating [3, 4]: 2.1±0.8
peak low rating [3, 4]: 0.9±0.8
peak rush rating (mean±SD) [3, 4]: 2.2±1.1
time of peak high ([3]; 0.6 mg/kg IV, post-infusion): 3 min
time of peak rush ([3]; 0.6 mg/kg IV, post-infusion): 3 min
time of peak craving [3, 5]: 12 min and 11 to 12 min
time of peak low [3, 5]: 11 min and 11 to 12 min
craving rating ([3]; retest infusion, four subjects): 1.0±1.2
high rating ([3]; retest infusion, four subjects): 2.3±0.5
low rating ([3]; retest infusion, four subjects): 1.0±0.8
rush rating ([3]; retest infusion, four subjects): 1.8±1.0
